# Source: patent US20100041089A1, “IMPROVED METHOD FOR DETECTING CHEMICAL […]” (priority 2006, published 2010)
# Test system: yeast genes (expressed mRNA)
# Assay: DNA chip measurement of expressed mRNA of yeast genes after culture with a toxic chemical substance
# Format: cell-based, Saccharomyces cerevisiae S288C
# Conditions: for level of expressed mRNA in the presence of chemical substance / level in the absence of chemical substance: cultured two hours with the chemical substance; for The level of expressed mRNA in the presence of chemical substance/The level of expressed mRNA in the absence of chemical substance: cultured two hours with substance
# Method in brief: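 Two-hour exposure of growing S. cerevisiae S288C (YPD, 25° C) to a sublethal toxicant preceded RNA isolation. Fluorescent cDNA was hybridized to a whole-genome array; a treated-to-untreated signal ratio of two or more was taken as significant.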
substance,measurement,setting,value
Manganese ethylenebis(dithiocarbamate) [(8)],level of expressed mRNA in the presence of chemical substance / level in the absence of chemical substance,yeast gene YJL097W,0.8
same,The level of expressed mRNA in the presence of chemical substance/The level of expressed mRNA in the absence of chemical substance,yeast gene YJL151C,0.8
same,The level of expressed mRNA in the presence of chemical substance/The level of expressed mRNA in the absence of chemical substance,yeast gene YJL152W,0.7
same,The level of expressed mRNA in the presence of chemical substance/The level of expressed mRNA in the absence of chemical substance,yeast gene YJL161W,1.4
same,The level of expressed mRNA in the presence of chemical substance/The level of expressed mRNA in the absence of chemical substance,yeast gene YJL171C,0.9
same,The level of expressed mRNA in the presence of chemical substance/The level of expressed mRNA in the absence of chemical substance,yeast gene YJR008W,1.1
same,level of expressed mRNA in the presence of chemical substance / level in the absence of chemical substance,yeast gene YJR030C,0.9
same,The level of expressed mRNA in the presence of chemical substance/The level of expressed mRNA in the absence of chemical substance,yeast gene YJR054W,1.6
same,level of expressed mRNA in the presence of chemical substance / level in the absence of chemical substance,yeast gene YKL051W,0.8
same,The level of expressed mRNA in the presence of chemical substance/The level of expressed mRNA in the absence of chemical substance,yeast gene YKL071W,24.7
same,The level of expressed mRNA in the presence of chemical substance/The level of expressed mRNA in the absence of chemical substance,yeast gene YKL086W,1.1
same,level of expressed mRNA in the presence of chemical substance / level in the absence of chemical substance,yeast gene YKL097C,0.4
same,level of expressed mRNA in the presence of chemical substance / level in the absence of chemical substance,yeast gene YKL100C,0.7
same,The level of expressed mRNA in the presence of chemical substance/The level of expressed mRNA in the absence of chemical substance,yeast gene YKL151C,1.0
same,The level of expressed mRNA in the presence of chemical substance/The level of expressed mRNA in the absence of chemical substance,yeast gene YKL153W,0.7
same,The level of expressed mRNA in the presence of chemical substance/The level of expressed mRNA in the absence of chemical substance,yeast gene YKL195W,1.2
same,level of expressed mRNA in the presence of chemical substance / level in the absence of chemical substance,yeast gene YKR040C,1.0
same,The level of expressed mRNA in the presence of chemical substance/The level of expressed mRNA in the absence of chemical substance,yeast gene YKR091W,1.3
same,The level of expressed mRNA in the presence of chemical substance/The level of expressed mRNA in the absence of chemical substance,yeast gene YLR054C,1.1
same,The level of expressed mRNA in the presence of chemical substance/The level of expressed mRNA in the absence of chemical substance,yeast gene YLR149C,1.1
same,The level of expressed mRNA in the presence of chemical substance/The level of expressed mRNA in the absence of chemical substance,yeast gene YLR152C,1.2
same,The level of expressed mRNA in the presence of chemical substance/The level of expressed mRNA in the absence of chemical substance,yeast gene YLR194C,1.0
same,level of expressed mRNA in the presence of chemical substance / level in the absence of chemical substance,yeast gene YLR226W,1.3
same,The level of expressed mRNA in the presence of chemical substance/The level of expressed mRNA in the absence of chemical substance,yeast gene YLR324W,1.0
same,level of expressed mRNA in the presence of chemical substance / level in the absence of chemical substance,yeast gene YLR338W,0.8
same,The level of expressed mRNA in the presence of chemical substance/The level of expressed mRNA in the absence of chemical substance,yeast gene YLR350W,1.0
same,The level of expressed mRNA in the presence of chemical substance/The level of expressed mRNA in the absence of chemical substance,yeast gene YLR387C,1.4
same,level of expressed mRNA in the presence of chemical substance / level in the absence of chemical substance,yeast gene YLR392C,1.3
same,level of expressed mRNA in the presence of chemical substance / level in the absence of chemical substance,yeast gene YLR415C,0.9
same,level of expressed mRNA in the presence of chemical substance / level in the absence of chemical substance,yeast gene YLR427W,1.1
same,The level of expressed mRNA in the presence of chemical substance/The level of expressed mRNA in the absence of chemical substance,yeast gene YLR460C,8.1
same,level of expressed mRNA in the presence of chemical substance / level in the absence of chemical substance,yeast gene YML013W,0.6
same,level of expressed mRNA in the presence of chemical substance / level in the absence of chemical substance,yeast gene YML029W,0.9
same,level of expressed mRNA in the presence of chemical substance / level in the absence of chemical substance,yeast gene YML041C,1.8
same,level of expressed mRNA in the presence of chemical substance / level in the absence of chemical substance,yeast gene YML079W,1.2
same,The level of expressed mRNA in the presence of chemical substance/The level of expressed mRNA in the absence of chemical substance,yeast gene YML117W,0.7
same,The level of expressed mRNA in the presence of chemical substance/The level of expressed mRNA in the absence of chemical substance,yeast gene YMR009W,1.4
same,The level of expressed mRNA in the presence of chemical substance/The level of expressed mRNA in the absence of chemical substance,yeast gene YMR067C,1.1
same,level of expressed mRNA in the presence of chemical substance / level in the absence of chemical substance,yeast gene YMR068W,0.8
same,level of expressed mRNA in the presence of chemical substance / level in the absence of chemical substance,yeast gene YMR071C,1.1
same,The level of expressed mRNA in the presence of chemical substance/The level of expressed mRNA in the absence of chemical substance,yeast gene YMR090W,3.9
same,The level of expressed mRNA in the presence of chemical substance/The level of expressed mRNA in the absence of chemical substance,yeast gene YMR095C,1.2
same,The level of expressed mRNA in the presence of chemical substance/The level of expressed mRNA in the absence of chemical substance,yeast gene YMR097C,1.5
same,The level of expressed mRNA in the presence of chemical substance/The level of expressed mRNA in the absence of chemical substance,yeast gene YMR102C,1.0
same,The level of expressed mRNA in the presence of chemical substance/The level of expressed mRNA in the absence of chemical substance,yeast gene YMR107W,1.3
same,level of expressed mRNA in the presence of chemical substance / level in the absence of chemical substance,yeast gene YMR160W,0.9
same,The level of expressed mRNA in the presence of chemical substance/The level of expressed mRNA in the absence of chemical substance,yeast gene YMR180C,1.8
same,The level of expressed mRNA in the presence of chemical substance/The level of expressed mRNA in the absence of chemical substance,yeast gene YMR184W,1.9
same,The level of expressed mRNA in the presence of chemical substance/The level of expressed mRNA in the absence of chemical substance,yeast gene YMR191W,1.1
same,The level of expressed mRNA in the presence of chemical substance/The level of expressed mRNA in the absence of chemical substance,yeast gene YMR295C,1.0
same,The level of expressed mRNA in the presence of chemical substance/The level of expressed mRNA in the absence of chemical substance,yeast gene YMR316W,1.6
same,level of expressed mRNA in the presence of chemical substance / level in the absence of chemical substance,yeast gene YNL026W,1.0
